PMC5766581, “NF-κB inducing kinase is a therapeutic target for systemic lupus erythematosus” (Nature Communications, 2018)
pIC50: −log10 of the molar value.

Experiments:
[1] = system: IL-12p40 production from human monocyte derived DC; test: CD40L induced IL-12p40 production from human DCs; format: cell-based
Procedure: Human monocytes were enriched from whole blood (Monocyte enrichment RosetteSep, Stem Cell) followed by isolation using Monocyte Isolation Kit II (Miltenyi). Isolated monocytes were cultured (RPMI-10% FBS, penicillin/streptomycin, glutamine) with rhGM-CSF (100 ng/mL) and rhIL-4 (6.5 ng/mL) (R&D Systems) for 5 days with GM-CSF replacement on day 3. On Day 5 immature monocyte derived DCs were monitored for differentiation by flow cytometry ([…], CD83^low CD86^low CD209^+/hi). […] After 24 h plates were centrifuged and supernatants were removed for IL-12p40 cytokine measurement by ELISA (BD Biosciences). Plots and IC50 measurements were generated using GraphPad Prism software.

[2] = system: p52 processing in human B cells; test: p52 processing western blot in B cells; format: cell-based
Procedure: (§1) p52/p100 and β-actin were monitored by western blot as described previously. Briefly, p52 processing was detected after 6 or 18 h of stimulation. Mouse and human RPTEC cells were stimulated with recombinant mouse or human TWEAK (100 ng/mL, R&D Systems). Primary B cells were isolated by negative selection (Miltenyi) from either mouse spleen or human whole blood. Human primary B cells were stimulated with either rhCD40L (10 μg/mL) or rhBAFF (400 ng/mL) (R&D Systems). Mouse primary B cells were stimulated with either anti-CD40 (10 μg/mL, BD Biosciences) or rmBAFF (400 ng/mL). After 6 or 18 h, whole cell extracts were generated using RIPA buffer (with protease and phosphatase inhibition), and approximately 10 μg of total protein was monitored for p52/p100 and β-Actin by western blot. HeLa cells (ATCC) were stimulated for 8 h with anti-LTβR agonist antibody and cytoplasmic and nuclear extracts were generated using kits purchase from Thermo Scientific and approximately […] of each extract was monitored for p52/p100, phospho-RelA, RelA, or β-Actin, Histone H3, or Lamin B1 controls. Uncropped western blots, as required by journal policies, are provided in Supplementary Fig. 13 and 14.

[3] = system: p52 processing in murine B cells; test: p52 processing western blot in B cells; format: cell-based; conditions: mouse B cells
Procedure: as §1

C57BL/6 mice = test: Seven-day in vivo B cell survival model; parameters: species or system mouse
NZB/W F1 mice = test: rAdV-IFNα-accelerated NZB/W F1 lupus model, 4-week biomarker study; format: in vivo; conditions: 180 mg/kg BID P.O.
Procedure: Age-matched (NZB x NZW) F1 mice were purchased from Jackson Laboratory. Fourteen to fifteen weeks old female NZB/W F1 mice were injected i.v. with 1.2 × 10^8 rAD5-CMV-IFNα (rAdV-IFNα) particles (Genentech) to accelerate disease[34],[69]. […] In efficacy studies, proteinuria and survival were tracked through day 84. A 4-week PD study was performed to measure cell subsets, serum Ig, chemokines, cytokines, and gene expression.
Kidneys were immersed in 10% neutral buffered formalin at ambient temperature for 24 h, then paraffin-embedded using routine methods. Four micron histologic sections were stained with Periodic acid–Schiff (PAS) for evaluation of glomerulonephritis and hematoxylin and eosin (H&E) for visual evaluation of interstitial inflammation by light microscopy. Scoring by the pathologist was performed in a blinded fashion. Glomerulonephritis severity scoring was on a 4-point semi-quantitative scale: “0” – normal or mild global lesions in <50% of glomeruli, “1”—global lesions in > 50% of glomeruli, <20% of which are severe (defined as >1 segment with <3 patent capillaries), “2”—global lesions in >50% of glomeruli, 20–80% of which are severe, and “3”— >80% of glomeruli with severe global lesions. Chronic pyelitis, cortical periarteritis, and tubulointerstitial nephritis severity was determined by blinded disease scoring. Severity scores for tubulointerstitial nephritis, periarteritis, and pyelitis were all on 4-point semiquantitative scales: “0”—no significant inflammation, “1”—sparse or focal inflammatory infiltrates, “2”—occasional moderately sized inflammatory infiltrates, and “3”—frequent large inflammatory infiltrates. Proteinuria measurements were done by dipstick (Multistix, Bayer Diagnostics). Protein concentration was assigned a proteinuria score with trace = […] = 1, 100 mg/dl = 2, >300 mg/dl = 4, and dead mice = 5.

[4] = system: nuclear p52 (non-canonical NF-κB signaling); test: High content nuclear p52 imaging, anti-LTβR-stimulated HeLa cells; format: cell-based, human; conditions: Homo sapiens, anti-LTβR induced, mean ± SD
Procedure: The HeLa cell line was used to define the cellular selectivity of NIK inhibitors toward inhibition of classical vs. non-classical NF-κB signaling using high content cellular imaging assays. For the nuclear translocation assay p52 (non-canonical NF-κB signaling), HeLa cells were treated with different concentrations of compounds previously diluted in DMSO (final [DMSO] = 0.2% in all wells) in DMEM medium (10% FBS, 2 mM Glutamine) and then stimulated with 300 ng/mL of an anti-lymphotoxin beta receptor antibody for 4.5 h. In the REL-A nuclear translocation assay, HeLa cells were incubated with compounds for 4 h 50 min before stimulating them with 2 ng/mL TNF (R&D Systems) for 10 min. Cells were fixed with 4% paraformaldehyde, permeabilized by adding 0.1% Triton X-100 in phosphate buffered saline, and then are incubated with either 2 μg/mL anti-p52 antibody or 400 ng/mL anti-REL-A (p65) antibody. Finally, the cells are incubated with an Alexa488-labeled secondary antibody (Invitrogen) and DRAQ5 DNA stain (Biostatus). Imaging was carried out using an Opera reader (Perkin Elmer) and data were analyzed with Acapella software (Perkin Elmer). The p52 or REL-A translocation into the nucleus is quantified by the ratio of the nuclear to cytoplasmic signal intensity.

## COc1cc(C(N)=O)nc(-c2cccc(C#C[C@]3(O)CCN(C)C3=O)c2)c1 [NIK SMI1]
[1]; dendritic cells
  CD40L-induced IL-12p40 production: nearly completely inhibited
[1]; human monocyte derived DC, rhCD40L, mean ± SD, read-out: CD40-induced IL-12 p40 IC50
  pIC50: 7.02
[2]
  BAFF-induced and CD40-induced p52 processing: significantly inhibited
[3]
  BAFF-induced and CD40-induced p52 processing: significantly inhibited
C57BL/6 mice; 6-400 mg/kg BID oral, 7 days
  splenic cellularity, frequency and absolute numbers of total B2, marginal zone and follicular B cells in the spleen: dose-dependently reduced
C57BL/6 mice; after 1 week of treatment, oral BID
  reduction of serum IgA levels: approximately 50%
NZB/W F1 mice; 4 weeks
  frequency and numbers of splenic B cells, germinal center B cells and plasma cells: decreased
  frequency and numbers of splenic T effector memory (TEM) and T follicular helper (TFH) cells: significantly reduced
  frequency and numbers of total CD4+ T-cells: did not affect
  histopathologic scores of glomerulonephritis: reduced
  kidney expression of CCL9, CCL2, CXCL13 and CXCL11: reduced
  serum CXCL16: significantly reduced
  serum TNF and IL-12p40: reduced
  spleen weight or total splenocyte count: did not have a substantial effect
  splenic expression of ICOS and IL-21: reduced
  splenic expression of Immunoglobulin J (Igj): strongly suppressed
NZB/W F1 mice; 4 weeks, vs BR3-mIgG2a
  suppression of serum anti-histone autoantibodies: superior to BAFF blockade
NZB/W F1 mice; 12 hours after final dose
  terminal exposure vs in vitro IC70: at or above the in vitro-determined IC70 concentration
[4]
  pIC50: 7.15
